A short description of the series: xn = mol fraction of the nth substance listed. The settings on record: 298.15 K, 101 kPa.

In turn, `CCCC[n+]1ccn(C)c1.O=S(=O)([N-]S(=O)(=O)C(F)(F)F)C(F)(F)F` + O registered a speed of sound (x2 = 0.012) of 1226.2 m/s, a speed of sound (x2 = 0.1166) of 1228.4 m/s and a speed of sound (x2 = 0.1843) of 1230.3 m/s.
`CCCn1cc[n+](C)c1.O=S(=O)([N-]S(=O)(=O)C(F)(F)F)C(F)(F)F` + O: the speed of sound stood at 1230.2 m/s (x2 = 0.0016), 1231.7 m/s (x2 = 0.0556) and 1236 m/s (x2 = 0.2358).
For the molecule `CC[n+]1ccn(C)c1.N#C[S-]` + O, the speed of sound (x2 = 0.153) was 1848.1 m/s and the speed of sound (x2 = 0.204) was found to be 1847.8 m/s.
Consider `CCCC[N+]1(C)CCCC1.O=S(=O)([N-]S(=O)(=O)C(F)(F)F)C(F)(F)F` + O, for which the speed of sound is recorded as 1267.8 m/s (x2 = 0.0092); 1267.7 m/s (x2 = 0.0139); 1267.8 m/s (x2 = 0.0228); 1268.3 m/s (x2 = 0.0467); 1273.9 m/s (x2 = 0.2014).

Usually speed of sound stands for the propagation velocity of pressure waves in the medium.

(Values after a compilation of properties of binary mixtures (doi:10.1007/s10953-015-0327-z).)
